Experimental data reported in patent US20250282871A1, “PHARMACEUTICAL COMBINATION AND USE THEREOF” (TIANJIN LIPOGEN TECHNOLOGY CO., LTD, priority 2021, published 2025).

Columns and labels:
[1] = system: colorectal carcinoma MC38; experiment: Example 3: xenograft tumor model of colorectal carcinoma MC38, RB0005 and different doses of 2′,3′-cGAMP; assay type: in vivo, mouse; conditions: single drug i.t.: RB0005 1 mg/kg; 2′,3′-cGAMP 1, 3.16, 10 mg/kg
Procedure: (§1) Tumor cells were cultured and passaged, cells were collected at the logarithmic phase, and formulated into a concentration of (1.0×10^7) per milliliter of cell suspension with 0.1 ml (with a cell number of 1.0×10^6) being injected into the right flank of the mice, the tumor grew to a diameter of about 5 mm within about 10 days, and the model was successfully established, they were randomly divided into 8 groups with 8 mice per group.
(§2) Trend of changes in body weight and tumor volume of mice, survival rate of mice, and inhibitory rate of anatomical tumor weight.
After successfully establishing a subcutaneous xenograft tumor model in mice, they were randomly grouped with 8 mice per group and administered once every two days.

[2] = system: colorectal carcinoma MC38; experiment: Example 1: subcutaneous xenograft tumor model of colorectal carcinoma MC38 in mice, RB0005 and 2′,3′-cGAMP; assay type: in vivo, mouse
Procedure: C57/BL6JNifdc mouse, female, body weight of 17-22 g, aged 6-8 weeks, SPF grade, purchased from Beijing Vital River Laboratory Animal Technology Co., Ltd. [Experimental Animal Quality Certificate No.: SCXK (Beijing) 2016-0006].
as §1, §2
(§3) Drug interaction coefficient: CDI(CI)=AB/A*B. AB is the ratio of the combination group of two drugs to the control group, as calculated based on the anatomical tumor weight. A or B is the ratio of single drug group to control group.
After successfully establishing a subcutaneous xenograft tumor model of colorectal carcinoma MC38 in mice, it was randomly grouped with 6-8 mice per group. The mice were administered once every two days, with a total of three times followed by observation until 15 days.

[3] = system: colorectal carcinoma MC38; experiment: Example 6: humanized PD-1 subcutaneous xenograft tumor model of colorectal carcinoma MC38, RB0004 and 2′,3′-cGAMP single dosage form; assay type: in vivo, mouse; conditions: intratumor injection; RB0004 10 mg/kg, 2′,3′-cGAMP 1 mg/kg; every other day, 3 times
Procedure: as §1, §2, §3
(§4) After successfully establishing a humanized PD-1 subcutaneous xenograft tumor model of colorectal carcinoma MC38 in mice, they were randomly grouped with 6-8 mice per group and administered once every two days, a total of 3 times.

[4] = system: colorectal carcinoma MC38; experiment: Example 7.2.1: MC38 subcutaneous xenograft, marketed PD-1 inhibitors and 2′,3′-cGAMP; assay type: in vivo, mouse; conditions: intratumor injection; PD-1 antibody 10 mg/kg, 2′,3′-cGAMP 1 mg/kg; every other day, 3 times
Procedure: as §1, §2, §3
(§5) After successfully establishing a subcutaneous xenograft tumor model of colorectal carcinoma MC38 in mice, they were randomly grouped with 6-8 mice per group and administered once every two days, a total of 3 times.

[5] = system: breast carcinoma 4T1; experiment: Example 11: humanized CD274 cell subcutaneous xenograft tumor model of breast carcinoma 4T1 in BALBc mice; assay type: in vivo; conditions: intratumor injection, 1 mg/kg each
Procedure: as §1, §2, §3
After successfully establishing a humanized CD274 cell subcutaneous xenograft tumor model of breast carcinoma 4T1 in BALBc mice, they were randomly grouped with 6-8 mice per group and administered once every two days, a total of 3 times.

[6] = system: colorectal carcinoma MC38; experiment: Example 9: MC38 xenograft, 2′,3′-cGAMP administered firstly, RB0005 after 48 hours; assay type: in vivo, mouse; conditions: 2′,3′-cGAMP 1 mg/kg i.t. Day 1, 3, 5; RB0005 1 mg/kg i.p. Day 3, 5, 7
Procedure: as §1, §2, §3, §4

[7] = system: colorectal carcinoma MC38; experiment: Example 5: humanized CD274 cell subcutaneous xenograft tumor model of colorectal carcinoma MC38, routes and dosage forms; assay type: in vivo, mouse; conditions: every other day, 3 times
Procedure: as §1, §2, §3
After successfully establishing a humanized CD274 cell subcutaneous xenograft tumor model of colorectal carcinoma MC38 in mice, they were randomly grouped with 6-8 mice per group and administered once every two days, a total of 3 times.

[8] = system: lung carcinoma LLC-1; experiment: Example 13: humanized PD-1 subcutaneous xenograft tumor model of lung carcinoma LLC-1; assay type: in vivo, mouse; conditions: intratumor injection; RB0004 10 mg/kg, 2′,3′-cGAMP 0.1 mg/kg; every other day, 3 times
Procedure: as §1, §3
After successfully establishing a humanized PD-1 subcutaneous xenograft tumor model of lung carcinoma LLC-1 in mice, they were randomly grouped with 6-8 mice per group and administered once every two days, a total of 3 times.

[9] = system: colorectal carcinoma MC38; experiment: Example 7.2.3: MC38 subcutaneous xenograft, PD-L1 inhibitor Tecentriq or RB0005 and 2′,3′-cGAMP; assay type: in vivo, mouse; conditions: intratumor injection, 1 mg/kg each, every other day, 3 times
Procedure: as §1, §2, §5

[10] = system: colorectal carcinoma MC38; experiment: Example 7.2.2: MC38 subcutaneous xenograft, PD-L1 inhibitor Durvalumab and 2′,3′-cGAMP; assay type: in vivo, mouse; conditions: intratumor injection, 1 mg/kg each, every other day, 3 times
Procedure: as §1, §2, §3, §5

[11] = system: colorectal carcinoma MC38; experiment: Example 2: humanized PD-1 subcutaneous xenograft tumor model of colorectal carcinoma MC38, RB0004 and 2′,3′-cGAMP; assay type: in vivo, mouse; conditions: 2′,3′-cGAMP 3 mg/kg i.t.; RB0004 10 mg/kg i.p.; every other day
Procedure: as §1, §2
After successfully establishing a humanized PD-1 subcutaneous xenograft tumor model of colorectal carcinoma MC38 in mice, they were randomly grouped with 8 mice per group and administered once every two days.

[12] = system: melanoma B16; experiment: Example 12: humanized PD-1 subcutaneous xenograft tumor model of melanoma B16; assay type: in vivo, mouse; conditions: intratumor injection, RB0004 10 mg/kg, 2′,3′-cGAMP 0.1 mg/kg; for TGI %: day 7
Procedure: as §1
After successfully establishing a humanized PD-1 subcutaneous xenograft tumor model of melanoma B16 in mice, they were randomly grouped with 6-8 mice per group and administered once every two days, a total of 3 times.

Nc1nc2c(ncn2[C@@H]2O[C@@H]3COP(=O)(O)O[C@H]4[C@@H](O)[C@H](n5cnc6c(N)ncnc65)O[C@@H]4COP(=O)(O)O[C@@H]2[C@@H]3O)c(=O)[nH]1 [2′,3′-cGAMP]
inhibition of tumor growth [1]: can inhibit the growth of tumor
inhibition of tumor growth ([2]; i.t. 1 mg/kg, anatomical tumor weight vs negative control P<0.01, P<0.001): can significantly inhibit the growth of tumor
survival rates of mice at the endpoint of the experiment ([2]; intratumor injection, 1 mg/kg each drug, every other day, 3 times, death = tumor volume >2000 mm^3): 75%
Tumor Weight [3]: 0.84 g
Tumor Weight [4]: 0.98 g
survival rate at the endpoint of the experiment [5]: 66.7%
Tumor Weight ([5]; every other day, 3 times): 0.63 g
Tumor Weight [6]: 1.30 g
Tumor Weight ([7]; intraperitoneal injection, 1 mg/kg (each)): 3.48 g
Tumor Weight ([7]; intratumor injection, 1 mg/kg each): 1.84 g
TGI % [8]: 47%
Tumor Weight [9]: 0.9 g
Tumor Weight [10]: 1.74 g
inhibition of tumor growth [11]: can inhibit the growth of tumor
Day 7-Tumor volume (mm^3) [12]: 578.8 mm^3
TGI % [12]: 59.0%
TGI % ([12]; listed as cGAMP): 59%

Durvalumab: marketed PD-L1 inhibitor, anti PD-L1 antibody
IRTW % (tumor weight inhibitory rate) [10]: 27.7%
Tumor Weight [10]: 2.42 g

Sintilimab: marketed PD-1 monoclonal antibody [reference compound]
IRTW % (tumor weight inhibitory rate) [4]: 3.9%
Tumor Weight [4]: 1.47 g

Tecentriq: marketed PD-L1 inhibitor
IRTW % (tumor weight inhibitory rate) [9]: 62.4%
Tumor Weight [9]: 0.7 g

Toripalimab: marketed PD-1 monoclonal antibody; G9 of Example 7.2.1, called TERRE in b443 [reference compound]
IRTW % (tumor weight inhibitory rate) [4]: 49.7%
Tumor Weight [4]: 0.92 g
